Assay results: patent publication US20150004134A1, “TREATMENT OF CANCER WITH HETEROCYCLIC INHIBITORS OF GLUTAMINASE” (Calithera Biosciences, Inc., priority 2012, published 2015)
Where two headings read alike, the source gives them in different places.

Tested on: P493-6 (myc "on") cells
Experiment: Cell Proliferation Assay
Assay type: cell-based
Settings: P493-6, 72 h
Description: P493-6 (myc “on”) cells were maintained in growth media (RPMI-1640, 10% FBS, 2 mM glutamine, 100 units/ml Penicillin and 100 μg/ml streptomycin) at 37° C. with 5% CO2. For compound assay, P493-6 cells were plated in 96-well V-bottom plates on the day of compound addition in 50 μl of growth media at a cell density of 200,000 cells/ml (10,000 cells/well). Compounds were serially diluted in 100% DMSO at 200-times the final concentration. Compounds were diluted 100-fold into growth media and then 50 μl of this mixture was added to cell plates making the final concentration of DMSO 0.5%. Cells were incubated with compound for 72 hrs at 37° C. with 5% CO2 and analyzed for antiproliferative effects either by Cell Titer Glo (Promega) or FACS analysis using the Viacount (Millipore) kit on the Guava instrument.

[1] = read-out: Cell prolif P493 72 h IC50, P493-6 cells, 72 h
[2] = read-out: Cell prolif P493 72 h IC50, P493 cells, 72 h

Compound | IC50 [1] [nM] | IC50 [2] [nM]
C[C@@](O)(C(=O)NCc1cccc(CC(=O)Nc2nnc(CCCCc3ccc(NC(=O)Cc4ccccc4)nn3)s2)c1)C(F)(F)F [Compound 477] | 15 | 
CC(NC(=O)OC(C)(C)C)c1cc(CC(=O)Nc2ccc(CCCCc3nnc(NC(=O)Cc4ccccc4)s3)nn2)ccc1F (stereo not shown) [Compound 654] | 7 | 
CC(CO)(CO)C(=O)Nc1nnc(CCCCc2nnc(NC(=O)C(C)(CO)CO)s2)s1 [Compound 151] |  | > 50000
CCCOc1ccc(C(O)C(=O)Nc2nnc(CCCCc3ccc(NC(=O)Cc4ccccc4)nn3)s2)cc1 (stereo not shown) [Compound 558] | 28 | 
O=C(CC(C(=O)O)c1ccccc1)Nc1nnc(CCCCc2nnc(NC(=O)CC(C(=O)O)c3ccccc3)s2)s1 (stereo not shown) [Compound 177] |  | > 50000
NCc1ccc(CC(=O)Nc2nnc(CCCCc3ccc(NC(=O)Cc4ccccc4)nn3)s2)cc1 [Compound 407] | 44 | 
CCCC(=O)OCN(C(=O)Cc1ccccc1)c1nnc(CCSCCc2nnc(NC(=O)Cc3ccccc3)s2)s1 [Compound 7] |  | 1000
O=C(Nc1nnc(CCCCc2nnc(NC(=O)[C@@H](O)[C@H](O)c3ccccc3)s2)s1)[C@@H](O)[C@H](O)c1ccccc1 [Compound 226] |  | > 50000
COC(=O)Cc1cccc(OCC(=O)Nc2nnc(CCCCc3ccc(NC(=O)Cc4ccccc4)nn3)s2)c1 [Compound 628] | 170 | 
O=C(Nc1ccc(CCCCc2nnc(NC(=O)C(O)c3cccc(Cl)c3)s2)nn1)C(O)c1cccc(Cl)c1 (stereo not shown) [Compound 446] | 150 | 
COc1cccc(C(O)C(=O)Nc2nnc(CCCCc3ccc(NC(=O)Cc4ccccc4)nn3)s2)c1 (stereo not shown) [Compound 317] |  | 10
O=C(Cc1ccccc1)Nc1ccc(CCCCc2nnc(NC(=O)C(OC(=O)CCN3CCOCC3)c3ccccc3)s2)nn1 (stereo not shown) [Compound 334] |  | 30
O=C(Cc1ccccc1)Nc1ccc(CCCCc2nnc(NC(=O)Cc3ccc(F)c(CN4CCNCC4)c3)s2)nn1 [Compound 494] | 580 | 
COc1cccc(C(CO)C(=O)Nc2nnc(CCCCc3nnc(NC(=O)C(CO)c4cccc(OC)c4)s3)s2)c1 (stereo not shown) [Compound 257] |  | 73
O=C(Nc1nnc(CCCCc2nnc(NC(=O)C(O)(CO)c3ccccc3)s2)s1)C(O)(CO)c1ccccc1 (stereo not shown) [Compound 278] |  | 160
O=C(Nc1nnc(CCCCc2nnc(NC(=O)C3(c4cccs4)CCOCC3)s2)s1)C1(c2cccs2)CCOCC1 [Compound 167] |  | 34000
C=CCC(C(=O)Nc1nnc(CCCCc2nnc(NC(=O)C(CC=C)c3ccccc3)s2)s1)c1ccccc1 (stereo not shown) [Compound 209] |  | 22000
O=C(Cc1ccccc1F)Nc1nnc(CCCCc2nnc(NC(=O)Cc3ccccc3F)s2)s1 [Compound 292] |  | 12
O=C(Cc1ccccc1)Nc1ccc(CCCCc2nnc(NC(=O)Cc3cccc(CNC(=O)C(F)(F)F)c3)s2)nn1 [Compound 458] | 13 | 
CC[C@](O)(C(=O)Nc1nnc(CCSCCc2nnc(NC(=O)[C@@](O)(CC)c3ccccc3)s2)s1)c1ccccc1 [Compound 141] |  | 4300
O=C(Nc1nnc(CCCCc2nnc(NC(=O)C3Cc4cc(Br)ccc4O3)s2)s1)C1Cc2cc(Br)ccc2O1 (stereo not shown) [Compound 122] |  | 43000
CC(C)(C)OC(=O)NCc1cccc(CC(=O)Nc2nnc(CCCCc3ccc(NC(=O)C4(C)COC(C)(C)OC4)nn3)s2)c1 [Compound 529] | 160 | 

Compound | IC50 [1] [nM] | IC50 [2] [nM]
O=C(Cc1cccc(-n2ccnc2)c1)Nc1nnc(CCCCc2nnc(NC(=O)Cc3cccc(-n4ccnc4)c3)s2)s1 [Compound 363] |  | > 20000
CC(=O)Nc1nnc(CCSCCc2nnc(NC(=O)Cc3ccccc3)s2)s1 [Compound 25] |  | 1500
O=C(Nc1nnc(CCCCc2nnc(NC(=O)C3COc4ccccc4O3)s2)s1)C1COc2ccccc2O1 (stereo not shown) [Compound 52] |  | 30000
CC(=O)Nc1nnc(CCCCc2ccc(NC(=O)Cc3cccc(CNC(=O)OC(C)(C)C)c3)nn2)s1 [Compound 491] | 23 | 
COCOCCOC(C(=O)Nc1nnc(CCCCc2nnc(NC(=O)C(OCCOCOC)c3ccccc3)s2)s1)c1ccccc1 (stereo not shown) [Compound 251] |  | 2800
COc1cccc(C(CO)C(=O)Nc2nnc(CCSCc3nnc(NC(=O)C(CO)c4cccc(OC)c4)s3)s2)c1 (stereo not shown) [Compound 258] |  | 180
O=C(Nc1nnc(CCSCCc2nnc(NC(=O)c3ccccc3CO)s2)s1)c1ccccc1CO [Compound 180] |  | > 50000
CC(C)(C)OC(=O)NCc1cccc(CC(=O)Nc2ccc(CCCCc3nnc(NC(=O)Cc4ccccc4)s3)nn2)c1 [Compound 367] |  | 6
O=C(Cc1ccccc1)Nc1nnc(CCSCCc2nnc(NC(=O)Cc3cccnc3)s2)s1 [Compound 347] |  | 710
CC(C)(C)OC(=O)NCc1cc(CC(=O)Nc2nnc(CCCCc3ccc(NC(=O)Cc4ccccc4)nn3)s2)ccc1F [Compound 492] | 14 | 
NS(=O)(=O)c1ccc(CC(=O)Nc2nnc(CCCCc3nnc(NC(=O)Cc4ccc(S(N)(=O)=O)cc4)s3)s2)cc1 [Compound 198] |  | > 50000
O=C(Cc1cccs1)Nc1nnc(CCSCc2nnc(NC(=O)Cc3cccs3)s2)s1 [Compound 237] |  | 250
CC(C(=O)Nc1ccc(CCCCc2nnc(NC(=O)C(C)c3ccccc3)s2)nn1)c1ccccc1 (stereo not shown) [Compound 613] | 450 | 
O=C(Cc1cccc(OCCO)c1)Nc1nnc(CCSCCc2nnc(NC(=O)Cc3cccc(OCCO)c3)s2)s1 [Compound 236] |  | 1400
O=C(Cc1cccc(Br)c1)Nc1nnc(CCSCCc2nnc(NC(=O)Cc3cccc(Br)c3)s2)s1 [Compound 270] |  | 850
O=C(Cc1ccccc1)Nc1nnc(CCSCc2nnc(NC(=O)[C@@H](O)c3ccccc3)s2)s1 [Compound 377] |  | 100
O=C(Cc1cccc(F)c1)Nc1nnc(CCCCc2nnc(NC(=O)Cc3cccc(F)c3)s2)s1 [Compound 273] |  | 70
CS(=O)(=O)c1cccc(CC(=O)Nc2nnc(CCSCCc3nnc(NC(=O)Cc4cccc(S(C)(=O)=O)c4)s3)s2)c1 [Compound 158] |  | 8100
O=C(Cc1ccccc1)Nc1nnc(CCCc2nnc(NC(=O)Cc3ccccc3)s2)s1 [Compound 72, N,N′-[5,5′-(propane-1,3-diyl)-bis(1,3,4-thiadiazole-5,2-diyl)]-bis(2-phenylacetamide)] |  | 470
Nc1nnc(CCCCc2ccc(NC(=O)Cc3ccccc3)nn2)s1 [Compound 342] |  | 2700
COC(C(=O)Nc1ccc(CCCCc2nnc(NC(=O)Cc3cccc(CNC(=O)OC(C)(C)C)c3)s2)nn1)c1ccccc1 (stereo not shown) [Compound 508] | 20 | 
COc1cccc(CC(=O)Nc2ccc(CCCCc3nnc(NC(=O)C(O)c4cccc(Cl)c4)s3)nn2)c1 (stereo not shown) [Compound 467] | 47 | 

Compound | IC50 [1] [nM] | IC50 [2] [nM]
O=C(Nc1nnc(CCSCCc2nnc(NC(=O)[C@@H]3CCCN3C(=O)C(F)(F)F)s2)s1)[C@@H]1CCCN1C(=O)C(F)(F)F [Compound 22] |  | > 50000
O=C(CCN1CCOCC1)OC(C(=O)Nc1nnc(CCCCc2nnc(NC(=O)C(O)c3cccc(Cl)c3)s2)s1)c1cccc(Cl)c1 (stereo not shown) [Compound 358] |  | 110
O=C(O)Cc1cccc(OCC(=O)Nc2nnc(CCCCc3ccc(NC(=O)Cc4ccccc4)nn3)s2)c1 [Compound 627] | 850 | 
CN(Cc1cccc(CC(=O)Nc2nnc(CCCCc3ccc(NC(=O)Cc4ccccc4)nn3)s2)c1)C(=O)OC(C)(C)C [Compound 396] | 5 | 
O=C(OCC(C(=O)Nc1nnc(CCCCc2nnc(NC(=O)C(COC(=O)C3CCNCC3)c3ccccc3)s2)s1)c1ccccc1)C1CCNCC1 (stereo not shown) [Compound 302] |  | 870
Cc1ccccc1CC(=O)Nc1nnc(CCCCc2ccc(NC(=O)Cc3ccccc3F)nn2)s1 [Compound 536] | 71 | 
COCC(C(=O)Nc1nnc(CCCCc2nnc(NC(=O)C(COC)c3ccccc3)s2)s1)c1ccccc1 (stereo not shown) [Compound 165] |  | 33000
NCc1cccc(CC(=O)Nc2nnc(CCCCc3nnc(NC(=O)Cc4ccccc4)s3)s2)c1 [Compound 437] | 72 | 
O=C(Cc1ccccc1)Nc1ccc(CCCCc2nnc(NC(=O)C(OC(=O)CCN3CCOCC3)c3cccc(Cl)c3)s2)nn1 (stereo not shown) [Compound 389] |  | 32
CC(C)(C)C(=O)OCN(C(=O)Cc1ccccc1)c1nnc(CCSCCc2nnc(N(COC(=O)C(C)(C)C)C(=O)Cc3ccccc3)s2)s1 [Compound 16] |  | 800
CO[C@@H](C(=O)Nc1nnc(CCCCc2nnc(NC(=O)[C@H](OC)c3ccccc3)s2)s1)c1ccccc1 [Compound 147] |  | 370
Cc1cccc(CC(=O)Nc2nnc(CCSCCc3nnc(NC(=O)Cc4cccc(C)c4)s3)s2)c1 [Compound 247] |  | 830
O=C(CN1CCOCC1)NCc1ccc(CC(=O)Nc2nnc(CCCCc3ccc(NC(=O)Cc4ccccc4)nn3)s2)cc1 [Compound 442] | 25 | 
O=C(Nc1nnc(CCCCc2nnc(NC(=O)C3Cc4ccccc4O3)s2)s1)C1Cc2ccccc2O1 (stereo not shown) [Compound 51] |  | 1300
C[C@H](O)C(=O)Nc1nnc(CCCCc2nnc(NC(=O)Cc3ccccc3)s2)s1 [Compound 321] |  | 2600
CC(=O)NCc1cccc(CC(=O)Nc2nnc(CCCCc3ccc(NC(C)=O)nn3)s2)c1 [Compound 459] | 570 | 
COc1ccc2c(c1)CC(C(=O)Nc1nnc(CCSCCc3nnc(NC(=O)C4Cc5cc(OC)ccc5O4)s3)s1)O2 (stereo not shown) [Compound 117] |  | 6200
COC(=O)NC(C)c1cccc(CC(=O)Nc2ccc(CCCCc3nnc(NC(=O)Cc4ccccc4)s3)nn2)c1 (stereo not shown) [Compound 589] | 25 | 
COc1ccccc1CC(=O)Nc1nnc(CCCCc2ccc(NC(=O)Cc3ccccc3Cl)nn2)s1 [Compound 531] | 42 | 
CCCCNC(=O)Cc1cccc(CC(=O)Nc2nnc(CCCCc3ccc(NC(=O)Cc4ccccc4)nn3)s2)c1 [Compound 496] | 17 | 
